The text below walks through data of PMC6949950, “Screening Mold Colonies by Using Two Toxicity Assays Revealed Indoor Strains of Aspergillus calidoustus Producing Ophiobolins G and K” (Toxins, 2019).

Values after ≈ are worked out from the molar mass of the structure shown. Where two headings read alike, the source gives them in different places. Where only a bound is given, the exact number is not on record here.

Experiment [1] relates to boar spermatozoa. Description: cells. Type of experiment: cell-based. Conditions: for EC50: Spermatozoa, 24 h, read-out: EC50 SMID 1 day.
The subject of experiment [2] is boar spermatozoa. Description: cells. The class given is cell-based. Conditions: for EC50: Spermatozoa.
Experiment [3] deals with porcine kidney PK-15 cells. Description: cells. The class given is cell-based. The settings on record: for EC50: Sus scrofa, read-out: EC50 ICP 2 days.
In the next experiment the test system is M. circinelloides. Also on record: method as in doi:10.1211/146080800128736312, PMID 21054501, PMID 22130129, PMID 23538442. Conditions: cited from earlier work.
Where [4] appears, read: boar sperm, exposure 1 day, SD between three measurements < ± 35%.
Where [5] appears, read: boar sperm, exposure 0.5–1 h, twofold dilutions, three measurements within one dilution step, read-out: EC50 BSMI 0.5–1 h.
[6] abbreviates: boar sperm, exposure 1–2 days, twofold dilutions, read-out: EC50 BSMI 1–2 days.
[7] abbreviates: PK-15 cells, exposure 2 days, SD between three measurements < ± 35%.
Where [8] appears, read: boar sperm, exposure 0.5–1 h, twofold dilutions, three measurements within one dilution step.
Where [9] appears, read: boar sperm, exposure 1–2 days, twofold dilutions.
Where [10] appears, read: PK-15, 48 h, PK-15 cells, exposure 2 days, SD between three measurements < ± 35%.

Broadly, the EC50 is the concentration that produces a half-maximal response. In the case of `CC(C)=C[C@H]1C[C@H](C)[C@]2(CC[C@]3(C)C[C@H]4[C@H](C(=O)C[C@@]4(C)O)/C(C=O)=C\C[C@H]32)O1` [Ophiobolin A], the EC50 with boar spermatozoa [1] (setting [4]) came to 2 µg/mL (≈ 4.99 µM); with boar spermatozoa [2] (setting [5]), 2.5 µg/mL (≈ 6.24 µM); in the experiment with boar spermatozoa [2] (setting [6]), 0.25 µg/mL (≈ 0.624 µM). The “EC50 ICP 2 days” value in experiment [3] (setting [7]) was 0.2 µg/mL (≈ 0.499 µM). For the same compound, in the experiment on M. circinelloides, the “treatment concentration at which apoptosis-like cell death process was observed” value was 1.6 µg/mL.

Turning to `CC1(C)C=Cc2c(ccc3c2[N+]([O-])=C2C(C)(C)[C@@H]4CC56CCCN5C(=O)[C@]4(NC6=O)[C@H]4N5C(=O)[C@@]67CCCN6C(=O)[C@@]56[C@H](c5c(n(O)c8c9c(ccc58)OC(C)(C)C=C9)C(C)(C)[C@@H]6C7)[C@]234)O1` [Stephacidin B], the “EC50 SMID 1 day” value in the experiment with boar spermatozoa [1] (setting [4]) is over 2 µg/mL. Further, the “EC50 BSMI 0.5–1 h” value in the experiment with boar spermatozoa [2] (setting [8]) was 0.5 µg/mL (≈ 0.561 µM). Besides, the “EC50 BSMI 1–2 days” value in the experiment on boar spermatozoa [2] (setting [9]) worked out at 0.2 µg/mL (≈ 0.224 µM). The “EC50 ICP 2 days” value in experiment [3] (setting [7]) was 0.2 µg/mL (≈ 0.224 µM).

Consider Alamethicin, for which the “EC50 SMID 1 day” value in the experiment with boar spermatozoa [1] (setting [4]) stood at 0.2 µg/mL. Further, the “EC50 BSMI 0.5–1 h” value in the experiment with boar spermatozoa [2] (setting [8]) worked out at 5 µg/mL. The “EC50 BSMI 1–2 days” value with boar spermatozoa [2] (setting [9]) was found to be 0.2 µg/mL. Also, in experiment [3] (setting [7]), the “EC50 ICP 2 days” value worked out at 8 µg/mL.

`C[C@@H]1Cc2c(Cl)cc(C(=O)N[C@@H](Cc3ccccc3)C(=O)O)c(O)c2C(=O)O1` [Ochratoxin A]: the EC50 is over 50 µg/mL in the experiment with boar spermatozoa [1] (setting [4]); over 100 µg/mL in the experiment on boar spermatozoa [2] (setting [5]); over 50 µg/mL in the experiment on boar spermatozoa [2] (setting [6]); over 50 µg/mL in experiment [3] (48 h, PK-15 cells, exposure 2 days, SD between three measurements < ± 35%).

With `Oc1cc(Cl)ccc1Oc1ccc(Cl)cc1Cl` [triclosan], the EC50 was 2 µg/mL (≈ 6.91 µM) in the experiment with boar spermatozoa [1] (setting [4]) and 9.4 µg/mL (≈ 32.5 µM) in experiment [3] (setting [10]).

For the compound `CC1(C)C=Cc2c(ccc3c2[N+]([O-])=C2C3=C[C@@]34NC(=O)[C@]5(CCCN5C3=O)C[C@H]4C2(C)C)O1` [Avrainvillamide], the 50% effective concentration (EC50) is over 2 µg/mL in the experiment on boar spermatozoa [1] (setting [4]), 0.6 µg/mL (≈ 1.35 µM) in the experiment with boar spermatozoa [2] (setting [5]), 0.3 µg/mL (≈ 0.673 µM) with boar spermatozoa [2] (setting [6]) and 0.3 µg/mL (≈ 0.673 µM) in experiment [3] (setting [10]).

On to `COc1cc2c(c3oc4cccc(O)c4c(=O)c13)[C@@H]1C=CO[C@@H]1O2` [Sterigmatocystin], for which the “EC50 SMID 1 day” value in the experiment on boar spermatozoa [1] is over 20 µg/mL. Also, in the experiment on boar spermatozoa [2], the “EC50 BSMI 0.5–1 h” value was over 100 µg/mL and the “EC50 BSMI 1–2 days” value was over 20 µg/mL. For the same compound, in experiment [3], the “EC50 ICP 2 days” value amounted to 0.25 µg/mL (≈ 0.771 µM) and the “toxicity to proliferating PK-15 cells in the ICP assay” value is “highly toxic”.
